In patent publication US5521315A, “Olefin substituted long chain compounds” (priority 1993, dated 1996):

Experiments:
mast cell degranulation = assay: Serotonin release assay (inhibition of mast cell degranulation); assay type: cell-based; conditions: for RELEASE-SPONT: average corrected for spontaneous release; for AVERAGE % RELEASE: average of duplicates; for % INHIBITION (serotonin release): Table 3
Source text: A serotonin release assay is utilized to study the utility of the inventive compounds for treatment of asthma and allergy. […] This assay measures mast cell degranulation, which is an early phase reaction to allergen challenge. Mast cells grown in tissue culture are first loaded with ^3 H serotonin, which is incorporated into the granules in the cells. The mast cells are sensitized with antigen specific monoclonal IgE, and then triggered to degranulate with the specific antigen (dinitorphenolbound to BSA (DNP)). When the cells degranulate, ^3 H Serotonin is released into the medium, and can be measured directly. The ability of the inventive compounds to inhibit the degranulation response is determined by the decrease in ^3 H Serotonin released in the presence of drug and is represented as % INHIBITION.
Specifically, the serotonin release assay seeds 2×10^5 cells in 0.5 ml medium in duplicate for spontaneous release, IgE+DNP, IgE+DNP+EtOH (vehicle control), and inventive compounds. […] The cells are incubated for 18 hours at 37° C. in 5% CO2, washed twice with 0.5 ml Isotonic Buffer (25 mM disodium PIPES pH 7.1,100 mM NaCl, 5 mM KCl, 5 mM glucose, 0.4 mM MgCl2, 1mM CaCl2, 0.1% BSA), and sterile filtered. 250 μl Isotonic Buffer is added per well and the plates are equilibrated in an incubator for about 10 min. Drug is added and cells are activated with 40 ng/ml DNP-BSA (1 mg/ml Diluted 1:200 in Isotonic Buffer) for 45 minutes using 2 μl/250 μl. Spontaneous release is determined in incubated cells with 250 μl Isotonic Buffer for 45 minutes and the reaction is stopped by removing supernatant and centrifuging at ~4000 rpm in microfuge for 15 seconds to remove any detached cells. Released radiolableled serotonin is counted. To determine amount of ^3 H-serotonin incorporated into the cells, (a) remove Isotonic Buffer and lyse cells by adding 250 μl 1% Triton-X100 in PBS, (b) add to 5 ml scintillation fluid, (c) wash 2× with Triton/PBS, and (d) add washes to scintillation tube. Percent serotonin release is calculated by dividing the amount of released serotonin by the sum of incorporated plus released serotonin and correcting for spontaneous released serotonin. Compound inhibition is calculated by dividing the percent serotonin release in the presence of a compound by the percent serotonin release in the absence of the compound.
This assay is described above and provides an in vitro model for an allergy and asthma therapeutic product.

[1] = test system: CMV promoter activity in transformed (adenovirus) cells; assay: CMV promoter assay (gene transcription and translation; cytotoxicity in transformed cells); assay type: cell-based
Source text: FIG. 18 illustrates data regarding proliferative activity of various inventive compounds for inducting CMV promoter activity. The CMV promoter assay measures gene transcription and translation activity wherein any active compounds will have cytotoxic activity to inhibit cellular protein synthesis machinery in transformed (adenovirus) cells.
This example illustrates data regarding proliferative activity of various inventive compounds for inducting CMV promoter activity. The CMV promoter assay measures gene transcription and translation activity wherein any active compounds will have cytotoxic activity to inhibit cellular protein synthesis machinery in transformed (adenovirus) cells.

C=CCn1c(=O)c2c(ncn2C)n(C)c1=O [CT1531, 1-(2-propenyl)-3,7-dimethylxanthine]
RELEASE-SPONT (mast cell degranulation; 50 μM, Table 4): 6.99%
AVERAGE % RELEASE (mast cell degranulation; 50 μM, Table 4): 23.55%
inhibition at 50 µM (mast cell degranulation; Mast cell, 50 μM, Table 4): 12.8%
IC50 [1]: 50 µM

C=CCCCCN1C(=O)CCN(C)C1=O [CT1812, 3-(5-hexenyl)-1-methyldihydrouracil]
activity in serotonin release assay (mast cell degranulation; 50 μM): just not having much of an effect at 50 μM
% INHIBITION (serotonin release) (mast cell degranulation; 50 μM): no inhibi-
RELEASE-SPONT (mast cell degranulation; 50 μM, Table 4): 8.27%
AVERAGE % RELEASE (mast cell degranulation; 50 μM, Table 4): 24.83%
inhibition at 50 µM (mast cell degranulation; Mast cell, 50 μM, Table 4): -3.14%
IC50 [1]: > 100 µM

C=CCCCCCCCn1c(=O)c2c(ncn2C)n(C)c1=O [CT1550, 1-(8-nonenyl)-3,7-dimethylxanthine]
RELEASE-SPONT (mast cell degranulation; 50 μM, Table 4): 6.94%
AVERAGE % RELEASE (mast cell degranulation; 50 μM, Table 4): 23.50%
inhibition at 50 µM (mast cell degranulation; Mast cell, 50 μM, Table 4): 13.4%
IC50 [1]: 75 µM

C=CC(O)CCCCCn1c(=O)c2c(ncn2C)n(C)c1=O (stereo not drawn) [CT2508, 1-(6-hydroxy-7-octenyl)-3,7-dimethylxanthine]
RELEASE-SPONT (mast cell degranulation; 50 μM, Table 4): 2.89%
AVERAGE % RELEASE (mast cell degranulation; 50 μM, Table 4): 19.44%
inhibition at 50 µM (mast cell degranulation; Mast cell, 50 μM, Table 4): 64%
IC50 [1]: > 500 µM

C=CCCCCN1C(=O)c2ccccc2C1=O [CT1101, N(5-hexenyl)phthalimide]
RELEASE-SPONT (mast cell degranulation; 50 μM, Table 4): 2.05%
AVERAGE % RELEASE (mast cell degranulation; 50 μM, Table 4): 18.60%
inhibition at 50 µM (mast cell degranulation; Mast cell, 50 μM, Table 4): 74.5%
IC50 [1]: 250 µM

C=CCCCCCCCCCCCn1c(=O)c2c(ncn2C)n(C)c1=O [CT2555, 1-(12-tridecenyl)-3,7-dimethylxanthine]
RELEASE-SPONT (mast cell degranulation; 50 μM, Table 4): 5.72%
AVERAGE % RELEASE (mast cell degranulation; 50 μM, Table 4): 21.68%
inhibition at 50 µM (mast cell degranulation; Mast cell, 50 μM, Table 4): 36.1%

C=CCCCCCCCN1C(=O)CCCC1=O [CT1604, N-(8-nonenyl)glutarimide]
RELEASE-SPONT (mast cell degranulation; 25 uM, Table 4): 4.85%
AVERAGE % RELEASE (mast cell degranulation; 25 uM, Table 4): 21.41%
activity in serotonin release assay (mast cell degranulation; 50 μM): appear to be quite potent
RELEASE-SPONT (mast cell degranulation; 50 μM, Table 4): 0.41%
AVERAGE % RELEASE (mast cell degranulation; 50 μM, Table 4): 16.96%
inhibition at 25 µM (mast cell degranulation; Mast cell, 25 uM, Table 4): 39.5%
inhibition at 50 µM (mast cell degranulation; Mast cell, 50 μM, Table 4): 94.9%
IC50 [1]: 100 µM

C=CCCCCCCCCCn1c(=O)ccn(C)c1=O [CT1823, 3-(10-undecenyl)1-methyluracil]
RELEASE-SPONT (mast cell degranulation; 50 μM, Table 4): 4.72%
AVERAGE % RELEASE (mast cell degranulation; 50 μM, Table 4): 21.28%
inhibition at 50 µM (mast cell degranulation; Mast cell, 50 μM, Table 4): 41.1%

C=CCCCCn1c(=O)c(C)cn(C)c1=O [CT1905, 3-(5-hexenyl)-1-methylthymine]
RELEASE-SPONT (mast cell degranulation; 50 μM, Table 4): 4.94%
AVERAGE % RELEASE (mast cell degranulation; 50 μM, Table 4): 21.49%
inhibition at 50 µM (mast cell degranulation; Mast cell, 50 μM, Table 4): 38.5%
IC50 [1]: > 500 µM

C=CCCCCCCCN1C(=O)c2ccccc2C1=O [CT1102, N(8-nonenyl)phthalimide]
RELEASE-SPONT (mast cell degranulation; 50 μM, Table 4): 2.32%
AVERAGE % RELEASE (mast cell degranulation; 50 μM, Table 4): 18.88%
inhibition at 50 µM (mast cell degranulation; Mast cell, 50 μM, Table 4): 71.1%
IC50 [1]: 175 µM

C=CCCCCCCCCCN1C(=O)CCCC1=O [CT1610, N-(10-undecenyl)glutarimide]
RELEASE-SPONT (mast cell degranulation; 50 μM, Table 4): 2.27%
AVERAGE % RELEASE (mast cell degranulation; 50 μM, Table 4): 18.83%
inhibition at 50 µM (mast cell degranulation; Mast cell, 50 μM, Table 4): 71.7%

C=CCCCCn1c(=O)n(C)c(=O)c2ccccc21 [CT1203, 1-(5-hexenyl)-3-methylbenzoyleneurea]
activity in serotonin release assay (mast cell degranulation; 50 μM): appear to be quite potent
RELEASE-SPONT (mast cell degranulation; 50 μM, Table 4): -1.12%
AVERAGE % RELEASE (mast cell degranulation; 50 μM, Table 4): 15.43%
inhibition at 50 µM (mast cell degranulation; Mast cell, 50 μM, Table 4): 114%

C=CCCCn1c(=O)c2c(ncn2C)n(C)c1=O [CT1575, 1-(4-pentenyl)-3,7-dimethylxanthine]
activity in serotonin release assay (mast cell degranulation; 50 μM): the two most potent compounds in this group
RELEASE-SPONT (mast cell degranulation; 50 μM, Table 4): 4.33%
AVERAGE % RELEASE (mast cell degranulation; 50 μM, Table 4): 20.89%
inhibition at 50 µM (mast cell degranulation; Mast cell, 50 μM, Table 4): 46%
IC50 [1]: > 500 µM

C=CCCCCCCCCCn1c(=O)c(C)cn(C)c1=O [CT1931, 3-(10-undecenyl)-1-methylthymine]
RELEASE-SPONT (mast cell degranulation; 50 μM, Table 4): 2.23%
AVERAGE % RELEASE (mast cell degranulation; 50 μM, Table 4): 18.78%
inhibition at 50 µM (mast cell degranulation; Mast cell, 50 μM, Table 4): 72.2%

CCCCCCCCC=CCCCCCCCCn1c(=O)c2c(ncn2C)n(C)c1=O [CT2539, 1-(9-octadecenyl)-3,7-dimethylxanthine]
RELEASE-SPONT (mast cell degranulation; 50 μM, Table 4): 3.13%
AVERAGE % RELEASE (mast cell degranulation; 50 μM, Table 4): 19.69%
inhibition at 50 µM (mast cell degranulation; Mast cell, 50 μM, Table 4): 61%
IC50 [1]: > 100 µM

C=CCCCCCCCn1c(=O)c(C)cn(C)c1=O [CT1917, 3-(8-nonenyl)-1-methylthymine]
RELEASE-SPONT (mast cell degranulation; 50 μM, Table 4): 3.75%
AVERAGE % RELEASE (mast cell degranulation; 50 μM, Table 4): 20.31%
inhibition at 50 µM (mast cell degranulation; Mast cell, 50 μM, Table 4): 53.2%
IC50 [1]: 75 µM

C/C=C/CCCn1c(=O)c2c(ncn2C)n(C)c1=O [CT1581, 1-(trans-4-Hexenyl)-3,7-dimethylxanthine]
RELEASE-SPONT (mast cell degranulation; 50 μM, Table 4): 4.31%
AVERAGE % RELEASE (mast cell degranulation; 50 μM, Table 4): 20.87%
inhibition at 50 µM (mast cell degranulation; Mast cell, 50 μM, Table 4): 46.3%
IC50 [1]: > 500 µM

C=CCCCCCCCCCCn1c(=O)c2c(ncn2C)n(C)c1=O [CT2516, 1-(11-dodecenyl)-3,7-dimethylxanthine]
RELEASE-SPONT (mast cell degranulation; 50 μM, Table 4): 5.57%
AVERAGE % RELEASE (mast cell degranulation; 50 μM, Table 4): 22.12%
inhibition at 50 µM (mast cell degranulation; Mast cell, 50 μM, Table 4): 30.6%

CC/C=C\CCCCCn1c(=O)c(C)cn(C)c1=O [CT1916, 3-(6-cis-nonenyl)-1-methylthymine]
activity in serotonin release assay (mast cell degranulation; 50 μM): appears to decrease the activity
RELEASE-SPONT (mast cell degranulation; 50 μM, Table 4): 6.02%
AVERAGE % RELEASE (mast cell degranulation; 50 μM, Table 4): 22.58%
inhibition at 50 µM (mast cell degranulation; Mast cell, 50 μM, Table 4): 24.9%
IC50 [1]: 250 µM

CC/C=C\CCCCCCn1c(=O)c2c(ncn2C)n(C)c1=O [CT2560, 1-(7-cis-decenyl)-3,7-dimethylxanthine]
activity in serotonin release assay (mast cell degranulation; 50 μM): appears to increase the activity
RELEASE-SPONT (mast cell degranulation; 50 μM, Table 4): 2.96%
AVERAGE % RELEASE (mast cell degranulation; 50 μM, Table 4): 19.51%
inhibition at 50 µM (mast cell degranulation; Mast cell, 50 μM, Table 4): 63.1%

CC(C)=CCC[C@H](C)CCn1c(=O)c2c(ncn2C)n(C)c1=O [CT1596S, 1-(3-(S)-methyl-7-methyloct-6-enyl)-3,7-dimethylxanthine]
RELEASE-SPONT (mast cell degranulation; 50 μM, Table 4): 3.15%
AVERAGE % RELEASE (mast cell degranulation; 50 μM, Table 4): 19.71%
inhibition at 50 µM (mast cell degranulation; Mast cell, 50 μM, Table 4): 60.7%
IC50 [1]: 40 µM
cytotoxicity ranking in CMV promoter assay ([1]; Table 2 / FIG. 18): the most cytotoxic compound tested

CC(C)=CCC[C@@H](C)CCn1c(=O)c2c(ncn2C)n(C)c1=O [CT1596R, 1-(3-(R)-methyl-7-methyloct-6-enyl)-3,7-dimethylxanthine]
RELEASE-SPONT (mast cell degranulation; 50 μM, Table 4): 6.59%
AVERAGE % RELEASE (mast cell degranulation; 50 μM, Table 4): 23.14%
inhibition at 50 µM (mast cell degranulation; Mast cell, 50 μM, Table 4): 17.9%
IC50 [1]: > 500 µM

CC/C=C\CCCCCN1C(=O)CCCC1=O [CT1607, N-(6-cis-nonenyl)glutarimide]
activity in serotonin release assay (mast cell degranulation; 50 μM): appears to decrease the activity
RELEASE-SPONT (mast cell degranulation; 50 μM, Table 4): 3.82%
AVERAGE % RELEASE (mast cell degranulation; 50 μM, Table 4): 20.38%
inhibition at 50 µM (mast cell degranulation; Mast cell, 50 μM, Table 4): 52.3%

C=CCCCCn1c(=O)c2[nH]cnc2n(C)c1=O [CT1438, 1-(5-hexenyl)-3-methylxanthine]
IC50 [1]: > 500 µM

C=CCCCCCCCCCN1C(=O)CCN(C)C1=O [CT1819, 3-(10-undecenyl)-1-methyldihydrouracil]
activity in serotonin release assay (mast cell degranulation; 50 μM): just not having much of an effect at 50 μM
% INHIBITION (serotonin release) (mast cell degranulation; 50 μM): no inhibi-
RELEASE-SPONT (mast cell degranulation; 50 μM, Table 4): 9.42%
AVERAGE % RELEASE (mast cell degranulation; 50 μM, Table 4): 25.98%
inhibition at 50 µM (mast cell degranulation; Mast cell, 50 μM, Table 4): -17.5%
